Results on 3 compounds are retold here after publication PMC5667636 (Antiviral Research, 2017).

The test system of experiment [1] is neuraminidase (NA) of A(H3N2) viruses. Format: biochemical, influenza A(H3N2) virus.
Experiment [2] relates to neuraminidase (NA) of A(H1N1)pdm09 viruses. Format: biochemical, influenza A(H1N1)pdm09 virus.
The test system of experiment [3] is neuraminidase (NA) of B/Victoria-lineage viruses. The class given is biochemical, influenza B/Victoria-lineage virus.
The subject of experiment [4] is neuraminidase (NA) of B/Yamagata-lineage viruses. The class given is biochemical, influenza B/Yamagata-lineage virus.

As for `[H]/N=C(\N)N[C@H]1C=C(C(=O)O)O[C@@H]([C@H](OC)[C@H](O)CO)[C@@H]1NC(C)=O` [Laninamivir, laninamivir], the “inhibition phenotype in NAI assay (NI/RI/HRI)” value (shortened to “inhibition phenotype”) in experiment [1] is recorded as “borderline NI”.

As to `CC(=O)N[C@H]1[C@H]([C@H](O)[C@H](O)CO)OC(C(=O)O)=C[C@@H]1N=C(N)N` [Zanamivir, zanamivir], the IC50 fold-change in experiment [1] is reported as 32 fold; in experiment [3] it was 14–17 fold. Moreover, the “IC50 fold-change compared to reference median IC50 values” in experiment [1] is on record as 32 fold. Further, the “inhibition phenotype” value in experiment [2] is recorded as “borderline RI”.

For the compound `CCOC(=O)C1=C[C@@H](OC(CC)CC)[C@H](NC(C)=O)[C@@H](N)C1` [Oseltamivir, oseltamivir], in experiment [1], the IC50 fold-change came to 87 fold and the “IC50 fold-change compared to reference median IC50 values” came to 87 fold. Moreover, in experiment [4], the “inhibition phenotype” value is recorded as “borderline RI”.
